Measured values reported in patent publication US5760036A, “Aminediol protease inhibitors” (E. R. Squibb & Sons, Inc., priority 1995, dated 1998).
Where two headings read alike, the source gives them in different places.

What was measured:
[1] = system: RF strain of HIV (CEM-SS cells); assay: Cell Culture Anti-HIV Activity (cell viability, formazan); assay type: cell-based; conditions: CEM-SS cells, RF strain of HIV, multiplicity of infection 0.04, 6 days at 37° C., 450 nm, read-out: HIV (CEM Cells) IC50
Method in brief: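 Half-log compound dilutions added to CEM-SS cells (5000/well) carrying HIV RF (MOI 0.04), 6 days, 37° C. Cell protection measured as formazan from tetrazolium, A450. IC50: drug level restoring infected-cell formazan to 50% of the uninfected untreated control.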

HIV protease = target: T1, HIV protease (Human immunodeficiency virus type 1 group M subtype B, UniProt P04585); assay: HIV Protease Assay; assay type: biochemical; conditions: pH 5.5, 10 μM inhibitor, 4% DMSO, 450 μM substrate, pH 5.5, 30 minutes at 37° C., RP-HPLC; read-out: HIV Protease % Inhibition at 10 μM
T1 construct: and purified protease
Method in brief: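 At a single final concentration of 10 μM (4% DMSO), inhibitors were added to a 30-minute, 37° C reaction of purified enzyme with 450 μM H2N-Val-Ser-Gln-Asn-(β-naphthyl-alanine)-Pro-Val-Ile-OH at pH 5.5 (sodium acetate, BSA). Hydrolysis was quantified by reverse-phase HPLC with 220 nm detection after acid quench.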

[2] = Human immunodeficiency virus 1, CEM-SS, 144 h

Molecule `CC(C)(C)OC(=O)N[C@@H](Cc1ccccc1)[C@H](O)CNC[C@@H](O)[C@H](Cc1ccccc1)NC(=O)C(NC(=O)OCc1ccccc1)C(C)(C)CO` (single isomer, unassigned; isomer a) [Compound 308, [1S-[1R*,2S*(2S*,3R*)]]-1-[[[3-[[(1,1-Dimethylethoxy)carbonyl]amino]-2-hydroxy-4-phenylbutyl]amino]-2-hydroxy-1-(phenylmethyl)propyl]amino]carbonyl-2-(hydroxymethyl)-2-methylpropyl] carbamic acid, phenylmethyl ester, isomer A] has an IC50 [1] of 0.02 µM and an inhibition at 10 µM (HIV protease) of 100%.
For `CC(C)(C)OC(=O)N[C@@H](Cc1ccccc1)[C@H](O)CNC[C@@H](O)[C@H](Cc1ccccc1)NC(=O)O[C@H]1CCc2ccccc21` [Compound 146, [1S-(1R*,2S*)]-[Iminobis[2-hydroxy-1-(phenylmethyl)-3,1-propanediyl)]biscarbamic acid, 1,1-dimethylethyl(S)-2,3-dihydro-1H-inden-1-yl ester], the IC50 [1, 2] was no less than 3 µM and the inhibition at 10 µM (HIV protease) was 98%.
Molecule `CC(C)[C@H](NC(=O)OCc1nc2ccccc2c(=O)[nH]1)C(=O)N[C@@H](Cc1ccccc1)[C@H](O)CNC[C@@H](O)[C@H](Cc1ccccc1)NC(=O)OC(C)(C)C` (relative stereo) [Compound 222, [1R*,2S*(2S*,3R*)]-N^2-[[(3,4-Dyhydro-4-oxo-2-quinazolinyl)methoxy]carbonyl]-N-[3-[[3-[[(1,1-dimethylethoxy)carbonyl]amino]-2-hydroxy-4-phenylbutyl]amino]-2-hydroxy-1-(phenylmethyl)propyl]-L-valinamide] has an IC50 [1, 2] of 0.38 µM and an inhibition at 10 µM (HIV protease) of 98%.
`CC(C)(CO)OC(=O)N[C@@H](Cc1ccccc1)[C@H](O)CNC[C@@H](O)[C@H](Cc1ccccc1)NC(=O)OC(C)(C)CO` [Compound 165, [R-(R*,S*)]-[Iminobis[2-hydroxy-1-(phenylmethyl)-3,1-propanediyl)biscarbamic acid, bis(2-hydroxy-1,1-dimethylethyl) ester] was tested, and the IC50 [1, 2] was 0.62 µM and the inhibition at 10 µM (HIV protease) was 100%.
Work on `CC(C)[C@H](NC(=O)Cc1nc2ccccc2[nH]1)C(=O)N[C@@H](Cc1ccccc1)[C@H](O)CNC[C@@H](O)[C@H](Cc1ccccc1)NC(=O)OC(C)(C)C` (relative stereo) [Compound 105, S-[1R*,2S*(2S*,3R*)]-N-[3-[[3-[[(1,1-Dimethylethoxy)carbonyl]amino]-2-hydroxy-4-phenylbutyl]amino]-2-hydroxy-1-(phenylmethyl)-propyl]-N^2-(1H-benzimidazol-2-ylacetyl)-L-valinamide] yielded an IC50 [1, 2] of 1.6 µM and an inhibition at 10 µM (HIV protease) of 99%.
`CC(C)(C)OC(=O)N[C@@H](Cc1ccccc1)[C@H](O)CNC[C@@H](O)[C@H](Cc1ccccc1)NC(=O)OC1CCOC1` (stereo partly drawn) [Compound 310, [1S-(1R*,2S*)]l-[Iminobis[2-hydroxy-1-(phenylmethyl)3,1-propanediyl]]bis[carbamic acid], 3-tetrahydrofuranyl 1,1-dimethylethyl ester] was tested, and the IC50 [1, 2] was 0.18 µM and the inhibition at 10 µM (HIV protease) was 100%.
Work on `CC(C)(C)OC(=O)N[C@@H](Cc1ccccc1)[C@H](O)CNC[C@@H](O)[C@H](Cc1ccc(OCC(=O)N2CCOCC2)cc1)NC(=O)OC(C)(C)C` [Compound 226, [1S-[1R*,2S*(2S*,3R*)]]-[3-[[3-[[(1,1-Dimethylethoxy)carbonyl]amino]-2-hydroxy-4-(4-[2-(4-morpholinyl)-2-oxo-ethoxy]phenyl]butyl]amino]-2-hydroxy-1-(phenylmethyl)propyl]carbamic acid, 1,1-dimethylethyl ester] yielded an IC50 [1, 2] of 0.05 µM and an inhibition at 10 µM (HIV protease) of 98%.
`CC(C)(C)OC(=O)N[C@@H](Cc1ccccc1)[C@H](O)CNC[C@@H](O)[C@H](Cc1ccc(OCCN2CCOC2=O)cc1)NC(=O)OC(C)(C)C` [Compound 343, [1S-[1R*,2S*(2S*,3R*)]]-[1-[[[3-[[(1,1-Dimethylethoxy)carbonyl]amino]-2-hydroxy-4-[4-[2-(2-oxo-3-oxazolidinyl)ethoxy]phenyl]butyl]amino]-2-hydroxy-1-(phenylmethyl)propyl]carbamic acid, 1,1-dimethylethyl ester] showed an IC50 [1, 2] of 0.05 µM and an inhibition at 10 µM (HIV protease) of 99%.
